Molecules are shown by their SMILES. pIC50: −log10 of the molar value. Counter-ions that a name gives are not always drawn.

In one assay the target is Hsp82 (Saccharomyces cerevisiae, UniProt P02829). The assay is described as follows: Hsp82/ATPase test (malachite green or PK/LDH coupled method). In kind it is biochemical. As to conditions: 1 μM Hsp82, 250 μM ATP, 37° C.; read-out: Hsp82 ATPase IC50. Here is the method: The biochemical activity of the compounds can in particular be evaluated by means of the “Hsp82/ATPase” test described below: The inorganic phosphate released during the hydrolysis of ATP by the ATPase activity of Hsp82 is quantified by the malachite green method. In the presence of this reagent, formation of the inorganic phosphate-molybdate-malachite green complex, which absorbs at a wavelength of 620 nm, occurs. The products to be evaluated are incubated in a reaction volume of 30 μl, in the presence of 1 μM Hsp82 and of 250 μM of substrate (ATP) in a buffer composed of 50 mM Hepes-NaOH (pH 7.5), 1 mM DTT, 5 mM MgCl2 and 50 mM KCl at 37° C. for 60 min. In parallel, an inorganic phosphate range of between 1 and 40 μM is made up in the same buffer. […] After incubation at ambient temperature for 20 min, the absorbance of the various wells is measured using a microplate reader at 620 nm. The inorganic phosphate concentration of each sample is then calculated from the standard curve. The ATPase activity of Hsp82 is expressed as concentration of inorganic phosphate produced in 60 minutes. The effect of the various products tested is expressed as percentage inhibition of the ATPase activity. The formation of ADP due to the ATPase activity of Hsp82 was used to develop another method for evaluating the enzyme activity of this enzyme by application of an enzymatic coupling system involving pyruvate kinase (PK) and lactate dehydrogenase (LDH). In this kinetic-type spectrophotometric method, PK catalyses the formation of ATP and of pyruvate from phosphoenol pyruvate (PEP) and the ADP produced by Hsp82. The pyruvate formed, which is a substrate for LDH, is subsequently converted to lactate in the presence of NADH. In this case, the decrease in the NADH concentration, measured through the decrease in absorbance at the wavelength of 340 nm, is proportional to the concentration of ADP produced by Hsp82. The products tested are incubated in a reaction volume of 100 μl of buffer composed of 100 mM Hepes-NaOH (pH 7.5), 5 mM MgCl2, 1 mM DTT, 150 mM KCl, 0.3 mM NADH, 2.5 mM PEP and 250 μM ATP. This mixture is preincubated at 37° C. for 30 minutes before the addition of 3.77 units of LDH and 3.77 units of PK. The reaction is initiated by addition of the product to be evaluated, in varying concentrations, and of Hsp82, at the concentration of 1 μM. The enzymatic activity of Hsp82 is then measured continuously, in a microplate reader, at 37° C., at the wavelength of 340 nm. The initial rate of the reaction is obtained by measuring the slope of the tangent to the origin of the curve recorded. The enzymatic activity is expressed in μM of ADP formed per minute. The effect of the various products tested is expressed as percentage inhibition of the ATPase activity according to the codification below: […]
Chain of Hsp82 (P02829 whole entry): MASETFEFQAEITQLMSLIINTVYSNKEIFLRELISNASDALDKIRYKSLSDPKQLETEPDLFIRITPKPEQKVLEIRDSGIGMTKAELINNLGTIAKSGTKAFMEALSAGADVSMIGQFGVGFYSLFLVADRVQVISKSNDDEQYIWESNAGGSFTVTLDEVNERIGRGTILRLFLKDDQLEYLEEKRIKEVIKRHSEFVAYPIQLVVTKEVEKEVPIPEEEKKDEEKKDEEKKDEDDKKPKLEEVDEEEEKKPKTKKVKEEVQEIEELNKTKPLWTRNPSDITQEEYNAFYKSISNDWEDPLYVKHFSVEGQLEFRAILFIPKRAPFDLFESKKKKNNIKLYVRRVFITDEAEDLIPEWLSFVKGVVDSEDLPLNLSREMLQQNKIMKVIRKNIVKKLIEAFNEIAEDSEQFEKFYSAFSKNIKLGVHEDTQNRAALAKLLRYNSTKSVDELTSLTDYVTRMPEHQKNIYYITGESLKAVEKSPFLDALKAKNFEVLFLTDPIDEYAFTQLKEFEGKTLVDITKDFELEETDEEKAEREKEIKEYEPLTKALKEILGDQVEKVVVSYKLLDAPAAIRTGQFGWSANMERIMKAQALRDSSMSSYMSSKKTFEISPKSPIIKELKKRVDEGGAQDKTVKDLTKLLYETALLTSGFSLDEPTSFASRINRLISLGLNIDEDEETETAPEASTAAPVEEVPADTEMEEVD

Assay [1] has as its system Her2 receptor expression at the surface of SKBr3 cells. The assay is described as follows: phenotypic SKBr3/HER2 cell test (Her2 surface expression by flow cytometry). It counts as cell-based. As to conditions: Homo sapiens, SK-BR-3, 24 h incubation, inhibition of Her2 expression. The method, boiled down: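 SKBr3 cells (Her2-overexpressing adenocarcinoma) treated 24 h with compound at varying concentrations, then stained with PE-anti-Her2 antibody 30 min at 4° C; surface Her2 measured by flow cytometry. IC50 from nonlinear fit of % inhibition of Her2 expression versus concentration.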

By pIC50 is commonly meant −log10 of the IC50, conventionally taken in molar units. On to `COC[C@H](C)Nc1cc(-n2c3ccccc3c3c(-c4nc5ccc(F)cc5[nH]4)cccc32)ccc1C(N)=O` [Example 54], for which the negative logarithm of the IC50 (pIC50) (at Hsp82; in assay [1]) was more than 6.00 each time.

Regarding `NC(=O)c1ccc(-n2c3ccccc3c3c(-c4cncc(OCc5ccccc5)c4)cccc32)cc1N[C@H]1CC[C@H](O)CC1` [Example 67, 4-{4-[5-(benzyloxy)pyridin-3-yl]-9H-carbazol-9-yl}-2-[(4-trans-hydroxycyclohexyl)amino]benzamide], the pIC50 (on Hsp82; in assay [1]) was 5.00 to 6.00 throughout.

`NC(=O)c1ccc(-n2c3ccccc3c3c(-c4cnc5ccccc5c4)cccc32)cc1N[C@H]1CC[C@H](O)CC1` [Example 2, 2-(4-trans-hydroxycyclohexylamino)-4-[(4-quinolin-3-yl)-9H-carbazol-9-yl]benzamide]: the pIC50 (on Hsp82; in assay [1]) was more than 6.00 throughout.

Take `NC(=O)c1ccc(-n2c3ccccc3c3c(-c4nc5ccc(F)cc5[nH]4)cccc32)cc1NCc1c[nH]cn1` [Example 57, 4-[4-(6-fluoro-1H-benzimidazol-2-yl)-9H-carbazol-9-yl]-2-[(1H-imidazoly-4-yl)methylamino]benzamide]: the pIC50 (at Hsp82; in assay [1]) was 5.00 to 6.00 each time.

Consider `CC(=O)O[C@H]1CC[C@H](Nc2cc(-n3c4ccccc4c4c(-c5nc6ccc(F)cc6[nH]5)cccc43)ccc2C(N)=O)CC1` [Example 5, acetic acid 4-{2-carbamoyl-5-[4-(6-fluoro-1H-benzimidazol-2-yl)-9H-carbazol-9-yl]phenylamino}-trans-cyclohexyl ester], for which the pIC50 at Hsp82 was 5.00 to 6.00; in assay [1] it was more than 6.00.

Regarding `NC(=O)c1ccc(-n2c3ccccc3c3c(-c4nc5ccc(F)cc5[nH]4)cccc32)cc1NCCF` [Example 62, 4-[4-(6-fluoro-1H-benzimidazol-2-yl)-9H-carbazol-9-yl]-2-(2-fluoroethylamino)benzamide], the pIC50 (on Hsp82; in assay [1]) was more than 6.00 in each case.

In the case of `Nc1nn(CCO)c2cc(-n3c4ccccc4c4c(-c5nc6ccc(F)cc6[nH]5)cccc43)ccc12` [Example 16, 2-{3-amino-6-[4-(6-fluoro-1H-benzimidazol-2-yl)-9H-carbazol-9-yl]indazol-1-yl}ethanol], the pIC50 (on Hsp82; in assay [1]) was 5.00 to 6.00 each time.

Turning to `NC(=O)c1ccc(-n2c3ccccc3c3c(-c4nc5ccc(F)cc5[nH]4)cccc32)nc1` [Example 19, 6-[4-(6-fluoro-1H-benzimidazol-2-yl)carbazol-9-yl]nicotinamide], the pIC50 (at Hsp82; in assay [1]) was 5.00 to 6.00 in each case.

As to `CC(O)CNc1cc(-n2c3ccccc3c3c(-c4nc5ccc(F)cc5[nH]4)cccc32)ccc1C(N)=O` (racemic) [Example 40, 4-[4-(6-fluoro-1H-benzimidazol-2-yl)-9H-carbazol-9-yl]-2-(2(R,S)-hydroxypropylamino)benzamide], the pIC50 (on Hsp82; in assay [1]) was more than 6.00 throughout.

For the compound `NC(=O)c1ccc(-n2c3ccccc3c3c(-c4cnc5ccccc5c4)cccc32)cc1NCC[N+]1([O-])CCCC1` [Example 45, 2-[2-(1-oxypyrrolidin-1-yl)ethylamino]-4-[4-(quinolin-3-yl)-9H-carbazol-9-yl]benzamide], the pIC50 (on Hsp82; in assay [1]) was more than 6.00 each time.

Turning to `C[C@H](N)C(=O)O[C@H]1CC[C@H](Nc2cc(-n3c4ccccc4c4c(-c5nc6ccc(F)cc6[nH]5)cccc43)ccc2C(N)=O)CC1` [Example 26, trifluoroacetate of the 4-trans-{2-carbamoyl-5-[4-(6-fluoro-1H-benzimidazol-2-yl)-9H-carbazol-9-yl]phenylamino}cyclohexyl ester of 2(S)-aminopropionic acid], the pIC50 (on Hsp82; in assay [1]) was more than 6.00 in each case.

Consider `NC(=O)c1ccc(-n2c3ccccc3c3c(-c4nc5ccc(F)cc5[nH]4)cccc32)cc1NC(CO)CO` [Example 52, 4-[4-(6-fluoro-1H-benzimidazol-2-yl)-9H-carbazol-9-yl]-2-(2-hydroxy-1-hydroxymethylethylamino)benzamide], for which the pIC50 (at Hsp82; in assay [1]) was more than 6.00 throughout.

With `NC(=O)c1ccc(-n2c3ccccc3c3c(-c4nc5ccc(F)cc5[nH]4)cccc32)cc1N[C@H]1CC[C@@H](O)CC1` [Example 9, 4-[4-(6-fluoro-1H-benzimidazol-2-yl)-9H-carbazol-9-yl]-2-(4-cis-hydroxycyclohexylamino)benzamide], the results for the pIC50 (on Hsp82; in assay [1]) were 5.00 to 6.00 and more than 6.00, respectively.

On to `NC(=O)c1ccc(-n2c3ccccc3c3c(-c4nc5ccc(F)cc5[nH]4)cccc32)cc1NCCOCCO` [Example 7, 4-[4-(6-fluoro-1H-benzimidazol-2-yl)-9H-carbazol-9-yl]-2-[2-(2-hydroxyethoxy)ethylamino]benzamide], for which the pIC50 (at Hsp82; in assay [1]) was more than 6.00 in each case.

Turning to `NC(=O)c1ccc(-n2c3ccccc3c3c(-c4nc5ccc(F)cc5[nH]4)cccc32)cc1N[C@H]1CC[C@H](O)CC1` [Example 1, 4-[4-(6-fluoro-1H-benzimidazol-2-yl)-9H-carbazol-9-yl]-2-(4-trans-hydroxycyclohexylamino)benzamide], the pIC50 (on Hsp82; in assay [1]) was more than 6.00 in each case.

Take `COCCCNc1cc(-n2c3ccccc3c3c(-c4cnc5ccccc5c4)cccc32)ccc1C(N)=O` [Example 33, 2-(3-methoxypropyl)amino-4-[4-(quinolin-3-yl)-9H-carbazol-9-yl]benzamide]: the pIC50 (on Hsp82; in assay [1]) was more than 6.00 in each case.

As for `NC(=O)c1ccc(-n2c3ccccc3c3c(-c4nc5ccc(F)cc5[nH]4)cccc32)cc1F` [Example 14, 2-fluoro-4-[4-(6-fluoro-1H-benzimidazol-2-yl)-9H-carbazol-9-yl]benzamide], the pIC50 was 5.00 to 6.00 on Hsp82 and more than 6.00 in assay [1].

In the case of `NC(=O)c1ncc(-n2c3ccccc3c3c(-c4cnc5ccccc5c4)cccc32)cc1N[C@H]1CC[C@H](O)CC1` [Example 58, 3-(4-trans-hydroxycyclohexylamino)-5-[(4-quinolin-3-yl)-9H-carbazol-9-yl]pyridine-2-carboxamide], the pIC50 (on Hsp82; in assay [1]) was more than 6.00 throughout.

Turning to `COCCCNc1cc(-n2c3ccccc3c3c(-c4nc5ccc(F)cc5[nH]4)cccc32)ccc1C(N)=O` [Example 38, 4-[4-(6-fluoro-1H-benzimidazol-2-yl)-9H-carbazol-9-yl]-2-(3-methoxypropylamino)benzamide], the pIC50 (on Hsp82; in assay [1]) was more than 6.00 each time.

Regarding `NC(=O)c1ccc(-n2c3ccccc3c3c(-c4ccc(CO)nc4)cccc32)cc1N[C@H]1CC[C@H](O)CC1` [Example 29, 2-[(4-trans-hydroxycyclohexyl)amino]-4-{4-[6-(hydroxymethyl)pyridin-3-yl]-9H-carbazol-9-yl}benzamide], the pIC50 (on Hsp82; in assay [1]) was more than 6.00 throughout.

On to `NC(=O)c1ccc(-n2c3ccccc3c3c(-c4cnc5ccccc5c4)cccc32)cc1NCCCO` [Example 31, 2-(3-hydroxypropyl)amino-4-[4-(quinolin-3-yl)-9H-carbazol-9-yl]benzamide], for which the pIC50 (at Hsp82; in assay [1]) was more than 6.00 in each case.

In the case of `CCN(CC)CCNc1cc(-n2c3ccccc3c3c(-c4nc5ccc(F)cc5[nH]4)cccc32)ccc1C(N)=O` [Example 3, 2-(2-diethylaminoethylamino)-4-[4-(6-fluoro-1H-benzimidazol-2-yl)-9H-carbazol-9-yl]benzamide], the pIC50 (on Hsp82; in assay [1]) was more than 6.00 each time.
